Series [1] concerns proMMP9-mediated migration of COS-1 cells. Description: two-dimensional collagen dot migration assay, COS-1 cells overexpressing proMMP-9. The format is cell-based. The following applies: 50 μM, 18 hours; for inhibition at 50 µM: Chlorocebus aethiops.
Description: This assay was initially used to test the efficacy of analogs at a single concentration, 50 μM.
Cells were mixed with type I collagen solution with or without compound, dotted onto a 96-well plate, and allowed to migrate for 18 hours. They were then fixed, stained and scored for extent of migration.
Another series concerns the target T1, proMMP-9 (Homo sapiens, UniProt P14780).
T1 construct: Purified recombinant MMP-9 (50 nmol/L) or MMP-9/MMP-2PEX (50 nmol/L) was diluted in buffer
Nature of the series: proMMP-9 tryptophan fluorescence blue shift binding assay. To be noted: binding to proMMP-9, tryptophan fluorescence.

Series [2] concerns MMP-9 at the cell surface of HT1080 cells. Description: MMP-9 cell surface localization, immunofluorescence in HT1080 cells. The format is cell-based, Human. The procedure:
HT1080 cells were fixed in 4% paraformaldehyde then subsequently incubated with anti-MMP-9 in addition to anti-α4 and/or β1 integrin antibodies to monitor relative levels of localization of these proteins at the cell surface. The cells were counterstained with DAPI nuclear dye.

A further series relates to HT1080 cells. Description: cell adhesion to collagen or fibronectin coated plate. The following applies: 37° C. 30 min. The format is cell-based, Human. The procedure: A 96-well plate was coated with a thin layer of either collagen or fibronectin (5 μg/ml in PBS) substrate before use. HT1080 cells were then seeded onto wells and incubated at 37° C. for 30 min in the presence of various inhibitors. Wells were washed and cells were fixed in 4% paraformaldehyde and stained with DAPI. Images of each 96-well were microscopically captured and counted for the number of cells still adherent to the coated surface using automated computer software.

Series [3] relates to COS-1 cells stably expressing vector control or proMMP-9. Description: acute cytotoxicity in COS-1 cells. The format is cell-based. The following applies: 100 nM staurosporine (positive control), 24 hours. The procedure:
Compound 3c was evaluated for acute cytotoxicity. COS-1 cells stably expressing either vector control or proMMP-9 cDNA were treated with 50 μM 3c for 24 hours. As negative and positive controls, cells were treated with DMSO alone or 100 nM staurosporine (STS), an apoptosis inducer, respectively. […] A non-statistically significant 8% decrease in cell growth occurred after treatment with 50 μM of compound 3c. These experiments were repeated in endogenous MMP-9 expressing HT1080 fibrosarcoma cells, which were analyzed for chronic toxicity (cells were re-treated every three days for a total of nine days).

Series [4] has as its target T2, APMA-activated recombinant proMMP-9 (Homo sapiens, UniProt P14780).
T2 construct: made in house
Description: MMP-9 catalytic activity with fluorogenic peptide. To be noted: 10 μM fluorogenic peptide, monitored over 2 hours. The format is biochemical. On the procedure: Recombinant proMMP-9 protein was purified and incubated overnight in a 37° C. water bath in TNC buffer+1 mM APMA to artificially activate the protein.

The test system of series [5] is FAK and PAX adhesion junctions in HT1080 cells. Nature of the series: focal adhesion complexes, immunofluorescence in HT1080 cells. The format is cell-based, Human. To be noted: 80 nM, p-FAK and p-PAX.

A value given as a limit tells only on which side of the number the result lay.

T1 sequence (P14780 20-707 limits assumed): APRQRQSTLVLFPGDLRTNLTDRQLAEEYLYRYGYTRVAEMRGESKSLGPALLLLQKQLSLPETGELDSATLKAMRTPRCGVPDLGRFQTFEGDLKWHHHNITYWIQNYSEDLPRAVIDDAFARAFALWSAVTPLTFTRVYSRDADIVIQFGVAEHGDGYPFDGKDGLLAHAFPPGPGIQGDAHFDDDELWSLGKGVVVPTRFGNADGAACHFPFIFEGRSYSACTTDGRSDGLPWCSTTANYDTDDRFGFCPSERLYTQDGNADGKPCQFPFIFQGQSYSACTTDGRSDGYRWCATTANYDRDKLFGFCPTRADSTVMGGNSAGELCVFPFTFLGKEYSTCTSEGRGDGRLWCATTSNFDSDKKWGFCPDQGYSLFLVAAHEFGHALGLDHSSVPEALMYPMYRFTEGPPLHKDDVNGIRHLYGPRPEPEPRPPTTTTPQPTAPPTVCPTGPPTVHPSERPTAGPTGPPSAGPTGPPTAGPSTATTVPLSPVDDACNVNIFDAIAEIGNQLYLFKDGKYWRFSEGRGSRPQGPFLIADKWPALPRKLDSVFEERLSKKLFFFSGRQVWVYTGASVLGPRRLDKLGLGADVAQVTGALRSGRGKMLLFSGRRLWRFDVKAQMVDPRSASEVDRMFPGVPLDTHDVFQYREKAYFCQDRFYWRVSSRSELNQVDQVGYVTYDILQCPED
T2 sequence (P14780 107-707 limits assumed): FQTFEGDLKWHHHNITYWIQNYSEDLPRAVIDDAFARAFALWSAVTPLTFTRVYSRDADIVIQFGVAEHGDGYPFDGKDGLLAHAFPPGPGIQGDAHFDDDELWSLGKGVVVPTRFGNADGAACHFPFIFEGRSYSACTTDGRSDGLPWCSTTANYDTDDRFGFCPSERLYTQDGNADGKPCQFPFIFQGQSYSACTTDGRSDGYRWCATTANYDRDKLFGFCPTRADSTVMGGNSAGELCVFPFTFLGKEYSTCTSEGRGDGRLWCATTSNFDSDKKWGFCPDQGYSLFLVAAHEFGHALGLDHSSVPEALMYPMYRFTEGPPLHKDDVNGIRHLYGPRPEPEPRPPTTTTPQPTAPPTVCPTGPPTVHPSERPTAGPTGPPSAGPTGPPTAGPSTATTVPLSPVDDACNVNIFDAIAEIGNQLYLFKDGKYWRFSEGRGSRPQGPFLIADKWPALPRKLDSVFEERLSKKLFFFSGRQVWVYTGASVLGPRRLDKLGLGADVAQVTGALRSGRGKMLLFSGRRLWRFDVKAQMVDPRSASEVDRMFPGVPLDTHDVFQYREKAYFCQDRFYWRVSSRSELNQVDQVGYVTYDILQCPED

One may read the inhibition as the relative decrease from the control value, in per cent. For orientation: melting point means the temperature, or range, at which the solid turns liquid. A word on the Kd: it is the constant that tells how readily two partners part at equilibrium. As for `CCCc1cc(=O)nc(SCC(=O)Nc2ccccc2)[nH]1` [Compound 1b, 2-(4-Oxo-6-propyl-1,4-dihydropyrimidin-2-ylthio)-N-phenylacetamide], the melting point is 170 °C (dec.). In series [1], this molecule came in with an inhibition at 50 µM of 12 ± 3%. The Kd at proMMP-9 amounted to 4500 ± 600 nM.

On to `CCCc1cc(=O)nc(SCC(=O)Nc2ccc(F)cc2)[nH]1` [Compound 1c, N-(4-Fluorophenyl)-2-(4-oxo-6-propyl-1,4-dihydropyrimidin-2-ylthio)acetamide], for which the melting point was 191 to 194 °C. Moreover, in series [1], the inhibition at 50 µM came out at 29 ± 4%. Moreover, the Kd at proMMP-9 was 3800 ± 600 nM.

For `CCCc1cc(=O)nc(SCC(=O)Nc2nc3ccccc3[nH]2)[nH]1` [Compound 1d, N-(1H-benzo[d]imidazol-2-yl)-2-(4-oxo-6-propyl-1,4-dihydropyrimidin-2-ylthio)acetamide], the melting point is 217 °C (dec.). Further, 50 µM produced 61 ± 2% inhibition in series [1]. On proMMP-9, the Kd turned out to be 1200 ± 200 nM.

`CCCc1cc(=O)nc(SCC(=O)N(C)c2ccccc2)[nH]1` [Compound 1f, 2-(4-Oxo-6-propyl-1,4-dihydropyrimidin-2-ylthio)-N(methyl)-phenylacetamide, reference compound]: the “localization of MMP-9 on the cell surface” value in series [2] is given as “did not disrupt the localization of MMP-9 on the cell surface”. For the same molecule, the “% Inhibition of proMMP9-Mediated Migration at 50 μM” value in series [1] stood at 2 ± 6%. In addition, the cellular adhesion entry in the series with HT1080 cells was “no affect on cell adhesion”.

In series [1], `CCCc1cc(=O)nc(SCCCC(=O)Nc2ccc(OC(F)F)cc2)[nH]1` [Compound 2a, N-(4-Difluoromethoxyphenyl)-4-(4-oxo-6-propyl-1,4-dihydropyrimidin-2-ylthio)butanamide] registered an inhibition at 50 µM of 63 ± 4%. Besides, the dissociation constant (Kd) at proMMP-9 was determined as 1000 ± 200 nM.

`CCCc1cc(=O)nc(SCCCC(=O)Nc2ccc(F)cc2)[nH]1` [Compound 2c, N-(4-Fluorophenyl)-4-(4-oxo-6-propyl-1,4-dihydropyrimidin-2-ylthio)butanamide]: the melting point was in the range of 180 to 182 °C. In series [1], this molecule showed an inhibition at 50 µM of 68 ± 3%. Also, the dissociation constant Kd at proMMP-9 was found to be 910 ± 100 nM.

Turning to `O=C(CCCSc1nc2c(c(=O)[nH]1)CCCC2)Nc1ccc(OC(F)F)cc1` [Compound 3a, N-(4-Difluoromethoxyphenyl)-4-(4-oxo-3,4,5,6,7,8-hexahydroquinazolin-2-ylthio)butanamide], the melting point fell in the range of 197 to 198 °C. Also, the inhibition at 50 µM in series [1] turned out to be 74 ± 2%. The Kd on proMMP-9 turned out to be 600 ± 100 nM.

Molecule `O=C(CCCSc1nc2c(c(=O)[nH]1)CCCC2)Nc1ccccc1` [Compound 3b, 4-(4-Oxo-3,4,5,6,7,8-hexahydroquinazolin-2-ylthio)-N-phenylbutanamide] came in with an inhibition at 50 µM in series [1] of 76 ± 1%. For the same molecule, the Kd on proMMP-9 amounted to 500 ± 100 nM.

`O=C(CCCSc1nc2c(c(=O)[nH]1)CCCC2)Nc1nc2ccccc2[nH]1` [Compound 3d, N-(1H-Benzo[d]imidazol-2-yl)-4-(4-oxo-3,4,5,6,7,8-hexahydroquinazolin-2-ylthio)butanamide] displayed a melting point greater than 230 °C. For the same molecule, in series [1], testing at 50 µM gave an inhibition of 77 ± 2%. Besides, the Kd at proMMP-9 was 500 ± 200 nM.

Regarding `O=C(CCCSc1nc2ccccc2c(=O)[nH]1)Nc1ccc(OC(F)F)cc1` [Compound 4a, N-(4-(Difluoromethoxy)phenyl)-4-(4-oxo-3,4-dihydroquinazolin-2-ylthio)butanamide], the melting point is 210 to 211 °C. The molecule also came in with an inhibition at 50 µM in series [1] of 78 ± 3%. Also, the Kd on proMMP-9 was found to be 500 ± 100 nM.

`O=C(CCCSc1nc2ccccc2c(=O)[nH]1)Nc1ccccc1` [Compound 4b, 4-(4-Oxo-3,4-dihydroquinazolin-2-ylthio)-N-phenylbutanamide] displayed an inhibition at 50 µM in series [1] of 64 ± 4%. For the same molecule, the Kd at proMMP-9 came to 800 ± 100 nM.

The molecule `O=C(CCCSc1nc2ccccc2c(=O)[nH]1)Nc1ccc(F)cc1` [Compound 4c, N-(4-Fluorophenyl)-4-((4-oxo-3,4-dihydroquinazolin-2-yl)thio)butanamide] displayed a melting point of 216 to 217 °C. This molecule came in with an inhibition at 50 µM in series [1] of 73 ± 2%. The equilibrium dissociation constant (Kd) at proMMP-9 is 640 ± 60 nM.

Molecule `O=C(CCCSc1nc2ccccc2c(=O)[nH]1)Nc1nc2ccccc2[nH]1` [Compound 4d, N-(1H-Benzo[d]imidazol-2-yl)-4-(4-oxo-3,4-dihydroquinazolin-2-ylthio)butanamide] yielded a melting point greater than 230 °C. In series [1], this molecule displayed an inhibition at 50 µM of 81 ± 3%. Besides, the Kd at proMMP-9 amounted to 300 ± 100 nM.

In series [1], `CCCCCCNC(=O)CCCSc1nc2ccccc2c(=O)[nH]1` [Compound 4e, N-Hexyl-4-(4-oxo-3,4-dihydroquinazolin-2-ylthio)butanamide] registered an inhibition at 50 µM of 56 ± 1%. On proMMP-9, the Kd came to 900 ± 300 nM.

Turning to `CN[C@@H]1C[C@H]2O[C@@](C)([C@@H]1OC)n1c3ccccc3c3c4c(c5c6ccccc6n2c5c31)C(=O)NC4` [STS, staurosporine, reference compound], the cell death result in series [3] is reported as “Significant cell death”.

`CNC(=O)[C@@H](NC(=O)[C@H](CC(C)C)[C@H](O)C(=O)NO)C(C)(C)C` [marimastat, reference compound]: the cellular adhesion entry in the series with HT1080 cells is “no observable effect on cell attachment”. Moreover, in series [4], the “inhibition of MMP-9 catalytic activity” value is “no substrate cleavage was observed”. Moreover, the “formation of focal adhesion contact sites” value in series [5] was “did not prevent the formation of focal adhesion contact sites”.

The values are drawn from patent US11040947B2, “Substituted quinazolines as matrix metalloproteinase-9 hemopexin domain inhibitors” (The Research Foundation for The State University of New York, priority 2017, dated 2021).
